In article PMC5218480 (PLoS ONE, 2017):

Tested on: MV-4-11 cells
Assay: Gene expression microarray analysis (Affymetrix PrimeView) and GSEA
Assay type: cell-based, human
Design: RFU PODN (11730768_x_at) / Fold change /veh PODN (11730768_x_at) / RFU LINC00158 (11744669_a_at) / Fold change /veh LINC00158 (11744669_a_at) / RFU DUSP10 (11751237_a_at) / Fold change /veh DUSP10 (11751237_a_at) / RFU ID3 (11757404_x_at) / Fold change /veh ID3 (11757404_x_at) / RFU PLEKHG5 (11737974_s_at) / Fold change /veh PLEKHG5 (11737974_s_at) / RFU LRRC4B (11730491_at) / Fold change /veh LRRC4B (11730491_at) / RFU GIMAP4 (11747438_a_at) / Fold change /veh GIMAP4 (11747438_a_at) / RFU KRT8 (11758183_x_at) / Fold change /veh KRT8 (11758183_x_at) / RFU CNN1 (11734310_a_at) / Fold change /veh CNN1 (11734310_a_at) / RFU VPS37D (11726825_at) / Fold change /veh VPS37D (11726825_at) / RFU C10orf10 (11716522_x_at) / Fold change /veh C10orf10 (11716522_x_at) / RFU KIR2DL2 /// KIR2DL4 /// KIR2DL5A /// KIR2DL5B /// KIR2DS1 /// KIR2DS2 /// KIR2DS3 /// KIR2DS4 /// KIR3DL3 /// KIR3DL3 /// KIR3DS1 (11738374_at) / Fold change /veh KIR2DL2 /// KIR2DL4 /// KIR2DL5A /// KIR2DL5B /// KIR2DS1 /// KIR2DS2 /// KIR2DS3 /// KIR2DS4 /// KIR3DL3 /// KIR3DL3 /// KIR3DS1 (11738374_at) / RFU C1QL1 (11718748_at) / Fold change /veh C1QL1 (11718748_at) / RFU TMPRSS4 (11747572_a_at) / Fold change /veh TMPRSS4 (11747572_a_at) / RFU HAMP (11756126_x_at) / Fold change /veh HAMP (11756126_x_at) / RFU RNFT2 (11725882_a_at) / Fold change /veh RNFT2 (11725882_a_at) / RFU NR4A2 (11747474_a_at) / Fold change /veh NR4A2 (11747474_a_at) / RFU ABCC12 (11746883_a_at) / Fold change /veh ABCC12 (11746883_a_at) / RFU TMEM136 (11760407_x_at) / Fold change /veh TMEM136 (11760407_x_at) / RFU CLDN22 /// WWC2 (11732394_at) / Fold change /veh CLDN22 /// WWC2 (11732394_at) / RFU HLA-DPB1 (11760878_x_at) / Fold change /veh HLA-DPB1 (11760878_x_at) / RFU SPINT1 (11716480_a_at) / Fold change /veh SPINT1 (11716480_a_at) / RFU GAP43 (11754022_s_at) / Fold change /veh GAP43 (11754022_s_at) / RFU A4GNT (11735810_at) / Fold change /veh A4GNT (11735810_at) / RFU PRB3 (11715151_x_at) / Fold change /veh PRB3 (11715151_x_at) / RFU TUBB4B (11761932_at) / Fold change /veh TUBB4B (11761932_at) / RFU CAPN14 (11732068_a_at) / Fold change /veh CAPN14 (11732068_a_at) / RFU TMCC2 (11721928_a_at) / Fold change /veh TMCC2 (11721928_a_at) / RFU IRGQ (11745062_a_at) / Fold change /veh IRGQ (11745062_a_at) / RFU FAM174B (11720279_a_at) / Fold change /veh FAM174B (11720279_a_at) / RFU TMPRSS4 (11748680_a_at) / Fold change /veh TMPRSS4 (11748680_a_at) / RFU FAM212B (11763350_a_at) / Fold change /veh FAM212B (11763350_a_at) / RFU PLEKHG5 (11743358_a_at) / Fold change /veh PLEKHG5 (11743358_a_at) / RFU ZSCAN30 (11745921_a_at) / Fold change /veh ZSCAN30 (11745921_a_at) / RFU CMKLR1 (11741424_a_at) / Fold change /veh CMKLR1 (11741424_a_at) / RFU LOC101060620 /// MAPK8IP1 (11723275_at) / Fold change /veh LOC101060620 /// MAPK8IP1 (11723275_at) / RFU SPTSSB (11747773_x_at) / Fold change /veh SPTSSB (11747773_x_at) / RFU PRSS12 (11739890_at) / Fold change /veh PRSS12 (11739890_at) / RFU BIN1 (11741810_x_at) / Fold change /veh BIN1 (11741810_x_at) / RFU WNT11 (11732464_a_at) / Fold change /veh WNT11 (11732464_a_at) / RFU C10orf10 (11716521_a_at) / Fold change /veh C10orf10 (11716521_a_at) / RFU C5orf56 (11738089_at) / Fold change /veh C5orf56 (11738089_at) / RFU CYB561 (11721691_x_at) / Fold change /veh CYB561 (11721691_x_at) / RFU ANKRD19P (11752326_a_at) / Fold change /veh ANKRD19P (11752326_a_at) / RFU OR2T12 /// OR2T33 /// OR2T8 (11738714_s_at) / Fold change /veh OR2T12 /// OR2T33 /// OR2T8 (11738714_s_at) / RFU VCAN (11748164_a_at) / Fold change /veh VCAN (11748164_a_at) / RFU JSRP1 (11732532_at) / Fold change /veh JSRP1 (11732532_at) / RFU KRTAP10-11 (11738290_x_at) / Fold change /veh KRTAP10-11 (11738290_x_at) / RFU MYO3A (11730013_a_at) / Fold change /veh MYO3A (11730013_a_at) / RFU EBF3 (11725865_a_at) / Fold change /veh EBF3 (11725865_a_at) / RFU CAMK2N1 (11719241_x_at) / Fold change /veh CAMK2N1 (11719241_x_at) / RFU C5orf56 (11738088_a_at) / Fold change /veh C5orf56 (11738088_a_at) / RFU OLFML3 (11715873_a_at) / Fold change /veh OLFML3 (11715873_a_at) / RFU LOC100653217 /// NTM (11731650_a_at) / Fold change /veh LOC100653217 /// NTM (11731650_a_at) / RFU MAPK11 (11762145_a_at) / Fold change /veh MAPK11 (11762145_a_at) / RFU FIZ1 (11724087_x_at) / Fold change /veh FIZ1 (11724087_x_at) / RFU OASL (11726364_x_at) / Fold change /veh OASL (11726364_x_at) / RFU SOX15 (11748057_x_at) / Fold change /veh SOX15 (11748057_x_at) / RFU CD79A (11719716_a_at) / Fold change /veh CD79A (11719716_a_at) / RFU HIST1H1D (11736915_at) / Fold change /veh HIST1H1D (11736915_at) / RFU CASKIN2 (11723855_a_at) / Fold change /veh CASKIN2 (11723855_a_at) / RFU LOC730098 (11760151_x_at) / Fold change /veh LOC730098 (11760151_x_at) / RFU OR4N2 (11742367_at) / Fold change /veh OR4N2 (11742367_at) / RFU PRRT2 (11749266_a_at) / Fold change /veh PRRT2 (11749266_a_at) / RFU SNX32 (11753110_a_at) / Fold change /veh SNX32 (11753110_a_at) / RFU CDHR5 (11726645_a_at) / Fold change /veh CDHR5 (11726645_a_at) / RFU RCAN1 (11760418_a_at) / Fold change /veh RCAN1 (11760418_a_at) / RFU FAM167A (11723789_a_at) / Fold change /veh FAM167A (11723789_a_at) / RFU FAM26E (11764081_at) / Fold change /veh FAM26E (11764081_at) / RFU ISYNA1 (11749810_s_at) / Fold change /veh ISYNA1 (11749810_s_at) / RFU ACY1 (11761880_at) / Fold change /veh ACY1 (11761880_at) / RFU 11764098_at / Fold change /veh 11764098_at / RFU SAMD14 (11745864_x_at) / Fold change /veh SAMD14 (11745864_x_at) / RFU NPB (11741838_a_at) / Fold change /veh NPB (11741838_a_at) / RFU TMPRSS6 (11731388_a_at) / Fold change /veh TMPRSS6 (11731388_a_at) / RFU KRTAP10-2 (11738614_at) / Fold change /veh KRTAP10-2 (11738614_at) / RFU ARHGAP8 /// PRR5-ARHGAP8 (11727945_x_at) / Fold change /veh ARHGAP8 /// PRR5-ARHGAP8 (11727945_x_at) / RFU KRTAP5-7 /// NADSYN1 (11734609_at) / Fold change /veh KRTAP5-7 /// NADSYN1 (11734609_at) / RFU RASL12 (11751679_a_at) / Fold change /veh RASL12 (11751679_a_at) / RFU CDKN2B (11736163_a_at) / Fold change /veh CDKN2B (11736163_a_at) / RFU PRF1 (11729649_at) / Fold change /veh PRF1 (11729649_at) / RFU, ZNF638 /// ZNF638-IT1 / Fold change vs veh, ZNF638 /// ZNF638-IT1 / RFU, PANK3 / Fold change vs veh, PANK3 / RFU, SH3YL1 / Fold change vs veh, SH3YL1 / RFU, ZEB2 / Fold change vs veh, ZEB2 / RFU, NRIP1 / Fold change vs veh, NRIP1 / RFU, PTTG1IP / Fold change vs veh, PTTG1IP / RFU, CAPN2 / Fold change vs veh, CAPN2 / RFU, MED14 / Fold change vs veh, MED14 / RFU, SNORA58 / Fold change vs veh, SNORA58 / RFU, C1orf63 / Fold change vs veh, C1orf63 / RFU, LRRFIP1 / Fold change vs veh, LRRFIP1 / RFU, NDUFAF7 / Fold change vs veh, NDUFAF7 / RFU, SLC12A2 / Fold change vs veh, SLC12A2 / RFU, IBTK / Fold change vs veh, IBTK / RFU, ESF1 / Fold change vs veh, ESF1 / Fold change vs veh, TMEM50B / RFU, TAOK1 / Fold change vs veh, TAOK1 / RFU, ACBD3 / Fold change vs veh, ACBD3 / RFU, TMA16 / Fold change vs veh, TMA16 / RFU, RWDD3 / Fold change vs veh, RWDD3 / RFU, BCAT1 / Fold change vs veh, BCAT1 / RFU, EDEM3 / Fold change vs veh, EDEM3 / RFU, TMEM33 / Fold change vs veh, TMEM33 / RFU, WDR75 / Fold change vs veh, WDR75 / RFU, AHCTF1 / Fold change vs veh, AHCTF1 / RFU, TFRC / Fold change vs veh, TFRC / RFU, ZDHHC17 / Fold change vs veh, ZDHHC17 / RFU, NOM1 / Fold change vs veh, NOM1 / RFU, ARL8B / Fold change vs veh, ARL8B / RFU, ZBTB11 / Fold change vs veh, ZBTB11 / RFU, TAMM41 / Fold change vs veh, TAMM41 / RFU, KIAA1704 /// LOC100996395 / Fold change vs veh, KIAA1704 /// LOC100996395 / RFU, ING1 / Fold change vs veh, ING1 / RFU, TRMT61B / Fold change vs veh, TRMT61B / RFU, FUBP3 / Fold change vs veh, FUBP3 / RFU, TP53 / Fold change vs veh, TP53 / RFU, TNKS2 / Fold change vs veh, TNKS2 / RFU, ZFP14 / Fold change vs veh, ZFP14 / RFU, ACTR2 / Fold change vs veh, ACTR2 / RFU, PPP3R1 / Fold change vs veh, PPP3R1 / RFU, PIK3R1 / Fold change vs veh, PIK3R1 / RFU, HNRNPA1 / Fold change vs veh, HNRNPA1 / RFU, RNF170 / Fold change vs veh, RNF170 / RFU, ZNF28 / Fold change vs veh, ZNF28 / RFU, RNGTT / Fold change vs veh, RNGTT / RFU, OGT / Fold change vs veh, OGT / RFU, BRD1 / Fold change vs veh, BRD1 / RFU, MARS / Fold change vs veh, MARS / RFU, ZNF655 / Fold change vs veh, ZNF655 / RFU, FAHD1 / Fold change vs veh, FAHD1 / RFU, BDP1 / Fold change vs veh, BDP1 / RFU, LRRCC1 / Fold change vs veh, LRRCC1 / RFU, ARID1A / Fold change vs veh, ARID1A / RFU, ZNF146 / Fold change vs veh, ZNF146 / RFU, ZNF330 / Fold change vs veh, ZNF330 / RFU, GPN3 / Fold change vs veh, GPN3 / RFU, C9orf123 / Fold change vs veh, C9orf123 / RFU, N4BP2L2 / Fold change vs veh, N4BP2L2 / RFU, ARFIP1 / Fold change vs veh, ARFIP1 / RFU, FAM179B / Fold change vs veh, FAM179B / RFU, BCL10 / Fold change vs veh, BCL10 / RFU, UHRF1BP1L / Fold change vs veh, UHRF1BP1L / RFU, BET1 / Fold change vs veh, BET1 / RFU, CNOT2 / Fold change vs veh, CNOT2 / RFU, ZNF268 / Fold change vs veh, ZNF268 / Fold change vs veh, ZNF507 / RFU, DGCR2 / Fold change vs veh, DGCR2 / RFU, WDSUB1 / Fold change vs veh, WDSUB1 / Fold change vs veh, HSP90B1 /// MIR3652 / RFU, ADSS / Fold change vs veh, ADSS / RFU, GK / Fold change vs veh, GK / RFU, ZNF148 / Fold change vs veh, ZNF148 / RFU, TAF9 / Fold change vs veh, TAF9 / RFU, SLC1A5 / Fold change vs veh, SLC1A5 / RFU, SLMO2 / Fold change vs veh, SLMO2 / RFU, ABCC4 / Fold change vs veh, ABCC4 / RFU, LOC101060439 /// RAP1B / Fold change vs veh, LOC101060439 /// RAP1B / RFU, RFX7 / Fold change vs veh, RFX7 / RFU, GTPBP10 / Fold change vs veh, GTPBP10 / RFU, CNEP1R1 / Fold change vs veh, CNEP1R1 / RFU, BIVM-ERCC5 /// ERCC5 / Fold change vs veh, BIVM-ERCC5 /// ERCC5 / RFU, ILF3 / Fold change vs veh, ILF3 / RFU 11762660_at / Fold change /veh 11762660_at / RFU VCAN (11757783_s_at) / Fold change /veh VCAN (11757783_s_at) / RFU DDX43 (11728927_at) / Fold change /veh DDX43 (11728927_at) / RFU KRT8 (11758188_x_at) / Fold change /veh KRT8 (11758188_x_at) / RFU NKD1 (11759106_at) / Fold change /veh NKD1 (11759106_at) / RFU SRD5A1 (11742802_a_at) / Fold change /veh SRD5A1 (11742802_a_at) / RFU TPSAB1 /// TPSB2 (11721975_s_at) / Fold change /veh TPSAB1 /// TPSB2 (11721975_s_at) / RFU GSTM3 (11746129_a_at) / Fold change /veh GSTM3 (11746129_a_at) / RFU IL23R (11737362_x_at) / Fold change /veh IL23R (11737362_x_at) / RFU TMEM51 (11727254_a_at) / Fold change /veh TMEM51 (11727254_a_at) / RFU PIWIL2 (11732686_x_at) / Fold change /veh PIWIL2 (11732686_x_at) / RFU ORM1 (11744905_x_at) / Fold change /veh ORM1 (11744905_x_at) / RFU CCDC152 (11743942_at) / Fold change /veh CCDC152 (11743942_at) / RFU ECM1 (11717891_a_at) / Fold change /veh ECM1 (11717891_a_at) / RFU IL23R (11748794_a_at) / Fold change /veh IL23R (11748794_a_at) / RFU TNFAIP8L3 (11732012_x_at) / Fold change /veh TNFAIP8L3 (11732012_x_at) / RFU MBOAT4 (11741988_at) / Fold change /veh MBOAT4 (11741988_at) / RFU 11764193_at / Fold change /veh 11764193_at / RFU TMEM53 (11763286_at) / Fold change /veh TMEM53 (11763286_at) / RFU MAGEB2 (11727129_at) / Fold change /veh MAGEB2 (11727129_at) / RFU TMEM200A (11744735_a_at) / Fold change /veh TMEM200A (11744735_a_at) / RFU CCDC152 (11751479_a_at) / Fold change /veh CCDC152 (11751479_a_at) / RFU FAM211A (11726209_a_at) / Fold change /veh FAM211A (11726209_a_at) / RFU RGS16 (11746705_a_at) / Fold change /veh RGS16 (11746705_a_at) / RFU VCAN (11755009_s_at) / Fold change /veh VCAN (11755009_s_at) / RFU RHOB (11743442_s_at) / Fold change /veh RHOB (11743442_s_at) / RFU RGS16 (11720943_a_at) / Fold change /veh RGS16 (11720943_a_at) / RFU RGS16 (11720944_at) / Fold change /veh RGS16 (11720944_at) / RFU, VPS4B / Fold change vs veh, VPS4B / RFU, CREB1 / Fold change vs veh, CREB1 / RFU, DNAJC13 / Fold change vs veh, DNAJC13 / RFU, GNAQ / Fold change vs veh, GNAQ / RFU, CDK5R1 / Fold change vs veh, CDK5R1 / RFU, ZRANB3 / Fold change vs veh, ZRANB3 / RFU, CUL4A / Fold change vs veh, CUL4A / RFU, CCNY / Fold change vs veh, CCNY / RFU, UFL1 / Fold change vs veh, UFL1 / RFU, COG3 / Fold change vs veh, COG3 / RFU, DIAPH2 / Fold change vs veh, DIAPH2 / RFU, SKA2 / Fold change vs veh, SKA2 / RFU, AFF3 / Fold change vs veh, AFF3 / RFU, LMF1 / Fold change vs veh, LMF1 / RFU, IPO11 / Fold change vs veh, IPO11 / RFU, DFFB / Fold change vs veh, DFFB / RFU, FOXP1 / Fold change vs veh, FOXP1 / RFU, CARD8 / Fold change vs veh, CARD8 / RFU, STRN3 / Fold change vs veh, STRN3 / RFU, ADK / Fold change vs veh, ADK / RFU, RASSF2 / Fold change vs veh, RASSF2 / RFU, WIPF1 / Fold change vs veh, WIPF1 / RFU, LARP1B / Fold change vs veh, LARP1B / RFU, RASA1 / Fold change vs veh, RASA1 / RFU, RB1 / Fold change vs veh, RB1 / RFU, PPFIA1 / Fold change vs veh, PPFIA1 / RFU, MAT2A / Fold change vs veh, MAT2A / RFU, CCT5 / Fold change vs veh, CCT5 / RFU, WDR92 / Fold change vs veh, WDR92 / RFU, CUX1 / Fold change vs veh, CUX1 / RFU, TTC7A / Fold change vs veh, TTC7A / RFU, TMEM135 / Fold change vs veh, TMEM135 / RFU, DEPTOR / Fold change vs veh, DEPTOR / RFU, CPM / Fold change vs veh, CPM / RFU, DNAJB6 / Fold change vs veh, DNAJB6 / RFU, CACNA2D3 / Fold change vs veh, CACNA2D3 / RFU, DTX4 / Fold change vs veh, DTX4 / RFU, TFCP2 / Fold change vs veh, TFCP2 / RFU, GMCL1 /// GMCL1P1 / Fold change vs veh, GMCL1 /// GMCL1P1 / RFU, AEBP2 / Fold change vs veh, AEBP2 / RFU, SNHG1 /// SNORD22 /// SNORD25 /// SNORD26 /// SNORD27 /// SNORD28 /// SNORD29 /// SNORD31 / Fold change vs veh, SNHG1 /// SNORD22 /// SNORD25 /// SNORD26 /// SNORD27 /// SNORD28 /// SNORD29 /// SNORD31 / Fold change (Aza/veh), C12orf56 (ProbeSet 11735607_a_at) / Fold change (ACY-1035/veh), C12orf56 (ProbeSet 11735607_a_at) / Fold change (Aza/veh), FGFR1OP (ProbeSet 11751329_s_at) / Fold change (ACY-1035/veh), FGFR1OP (ProbeSet 11751329_s_at) / Fold change (Aza/veh), VPS36 (ProbeSet 11739960_a_at) / Fold change (ACY-1035/veh), VPS36 (ProbeSet 11739960_a_at) / RFU SYPL1 (11715823_x_at) / Fold change /veh SYPL1 (11715823_x_at) / RFU IGFBP7 (11715501_s_at) / Fold change /veh IGFBP7 (11715501_s_at) / RFU REEP3 (11722064_at) / Fold change /veh REEP3 (11722064_at) / RFU IGLL1 (11728026_x_at) / Fold change /veh IGLL1 (11728026_x_at): dose or concentration left out as unconfirmed
Conditions: MV-4-11 cells, 48 hours

Which “Fold change /veh SNX32 (11753110_a_at)” value does the source give for `Nc1ccc(-c2cccs2)cc1NC(=O)c1ccc2c(c1)cc(C1CC1)n2CCN1CCOCC1` [ACY-1035] here?
Its value is 1.17.
